Patent publication US6599525B2, “Dressings and bandages comprising same” (Johnson & Johnson Consumer Companies, Inc., priority 1998, dated 2003)

Legend:
Experiment in all cases: Microbiocidal activity of bandage samples on inoculated agar
Assay type in all cases: cell-based
Details in all cases: benzalkonium chloride in the dressing and bandage of the invention
Staphylococcus aureus = tested on: Staphylococcus aureus
Text: (§1) The purpose of this test was to determine whether the efficacy of the benzalkonium chloride contained within the absorbent substrate of a bandage of the invention would be adversely affected when a portion of the skin-facing surface of the absorbent substrate contained a discontinuous coating of an ointment-like composition. The specimens tested were the bandages of Example 4 comprising the dressing of Example 2. Test samples 2.5 cm×2 cm were cut from the bandages so as to remove the longitudinally extending adhesive strip portions that extended beyond the boundary of the dressing portion of the bandage.
(§2) The microbiocidal activity of the benzalkonium chloride in the dressing was tested by placing samples of the dressing on a peptone-casein-soya agar growth medium contained in petri dishes having an area of 64 square centimeters that had been inoculated with certain microorganisms. The test samples were placed in the dishes so that the skin facing side of the dressing contacted the agar medium. The following microorganisms were used:
(§3) The bactericidal suspensions for seeding of the prepared petri dishes were taken from cultures in their exponential growth phase. The concentration of each suspension was determined according to an AENOR (Association Francaise Normalisation) standard method using spectrophotometry at 620 nm. Suspensions of the desired concentration were then prepared by successive dilution to give seeding stock solutions.
(§4) A standard volume of the seeding stock solution was placed in the center of each prepared petri dish and spread with the help of a spreader. The inoculated plates were dried off in a drying oven at 37° C. for 30 minutes. The dressings were placed on top of the medium in the manner described above, and the petri dishes were then incubated for a total of 24 to 48 hours at 37° C. Dishes were removed from the incubator periodically and the extent of bacterial growth underneath the dressing was measured.

Streptococcus foecalis = tested on: Streptococcus foecalis
Text: as §1, §2, §3, §4

Mycobacterium smegmatis = tested on: Mycobacterium smegmatis
Text: as §1, §2, §3, §4

Escherichia coli = tested on: Escherichia coli
Text: as §1, §2, §3, §4

Measured: bactericidal activity (summary in words)

benzalkonium chloride
significant bactericidal activity: all assays above
